The values below come from patent US20250051338A1, “TYK2 DEGRADERS AND USES THEREOF” (Kymera Therapeutics, Inc., priority 2021, published 2025).

Assay type in all cases: cell-based
Test [1] deals with T1, TYK2 (Homo sapiens, UniProt P29597). The test is described as follows: TYK2 degradation MSD assay in human PBMC cells. Also noted: endogenous in cells; host or cells: human PBMC. The conditions noted are these: 4 to 24 hours incubation, read-out: TYK2 MSD DC50 rating in human PBMC. A digest of the protocol: (§1)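 Compound-driven TYK2 loss is measured with a Meso Scale Discovery sandwich assay on whole-cell lysates. Cells are incubated 4 to 24 hours at 37° C with nine 1:3-diluted doses topping at 1 to 10 μM, and DC50 values derive from four-parameter curve fitting.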
T1 sequence (P29597 whole entry): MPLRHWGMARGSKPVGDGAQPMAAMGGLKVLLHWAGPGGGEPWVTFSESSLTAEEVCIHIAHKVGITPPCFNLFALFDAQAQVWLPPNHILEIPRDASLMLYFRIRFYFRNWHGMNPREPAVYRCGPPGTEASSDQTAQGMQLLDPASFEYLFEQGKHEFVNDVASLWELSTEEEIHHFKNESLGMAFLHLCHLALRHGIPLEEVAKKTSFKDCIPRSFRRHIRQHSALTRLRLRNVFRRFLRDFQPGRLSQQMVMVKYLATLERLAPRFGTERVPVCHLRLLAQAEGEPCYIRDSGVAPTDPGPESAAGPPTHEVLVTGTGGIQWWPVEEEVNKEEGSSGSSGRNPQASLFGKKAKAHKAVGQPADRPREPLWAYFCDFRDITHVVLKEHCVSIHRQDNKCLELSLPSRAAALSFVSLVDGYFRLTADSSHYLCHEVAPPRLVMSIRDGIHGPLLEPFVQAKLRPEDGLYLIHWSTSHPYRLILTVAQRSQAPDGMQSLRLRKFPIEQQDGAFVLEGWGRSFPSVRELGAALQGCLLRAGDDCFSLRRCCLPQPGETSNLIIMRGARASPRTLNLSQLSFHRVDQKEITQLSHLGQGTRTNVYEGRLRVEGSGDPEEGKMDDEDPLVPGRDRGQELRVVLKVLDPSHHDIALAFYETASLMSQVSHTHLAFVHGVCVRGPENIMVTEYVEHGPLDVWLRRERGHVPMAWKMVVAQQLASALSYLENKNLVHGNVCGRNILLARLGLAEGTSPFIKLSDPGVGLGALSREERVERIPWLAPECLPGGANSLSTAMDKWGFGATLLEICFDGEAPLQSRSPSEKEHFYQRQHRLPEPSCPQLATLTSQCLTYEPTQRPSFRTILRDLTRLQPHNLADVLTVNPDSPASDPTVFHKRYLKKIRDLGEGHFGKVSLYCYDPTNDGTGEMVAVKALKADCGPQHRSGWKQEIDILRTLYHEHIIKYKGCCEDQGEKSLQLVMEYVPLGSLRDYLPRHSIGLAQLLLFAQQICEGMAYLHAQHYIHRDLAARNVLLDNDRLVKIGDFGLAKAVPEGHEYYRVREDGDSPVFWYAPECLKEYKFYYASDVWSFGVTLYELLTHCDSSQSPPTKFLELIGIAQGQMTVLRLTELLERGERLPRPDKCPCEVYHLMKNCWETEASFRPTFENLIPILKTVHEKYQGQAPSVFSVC

In test [2] the target is T1, TYK2. Briefly: TYK2 degradation MSD assay in EBV-B cells. Also noted: endogenous in cells; host or cells: EBV-B cells. Particulars: 4 to 24 hours incubation, read-out: TYK2 MSD DC50 rating in EBV-B. In a few lines:
as §1

In test [3] the target is T1, TYK2. The test is described as follows: TYK2 degradation MSD assay in OCI-LY10 cells. Also noted: endogenous in cells; host or cells: EBV-B cells. Particulars: 4 to 24 hours incubation, read-out: TYK2 MSD DC50 rating in OCI-LY10. A digest of the protocol: as §1

For orientation: DC50 means the midpoint of the concentration-degradation curve. As for `CNc1cc(Nc2cccn(-c3ccc(C(=O)N4CC5(CCN(c6ccc7c(c6)n(C)c(=O)n7C6CCC(=O)NC6=O)CC5)C4)cn3)c2=O)nn2c(C(=O)N[C@@H]3C[C@@H]3F)cnc12` (stereo partly drawn) [Example K388], the DC50 in test [1], in test [2] and in test [3] was > 0.1 µM throughout.

Regarding `CNc1cc(Nc2cccn(-c3ccc(C(=O)N4CC5(CCN(c6cccc7c6n(C)c(=O)n7C6CCC(=O)NC6=O)CC5)C4)cn3)c2=O)nn2c(C(=O)N[C@@H]3C[C@@H]3F)cnc12` (stereo partly drawn) [Example K389], the DC50 in test [1], in test [2] and in test [3] was < 0.001 µM in each case.

`CNc1cc(Nc2cccn(-c3ccc(C(=O)N4CCC(CN(C)c5ccc6c(c5)n(C)c(=O)n6C5CCC(=O)NC5=O)CC4)cn3)c2=O)nn2c(C(=O)N[C@@H]3C[C@@H]3F)cnc12` (stereo partly drawn) [Example K390]: the DC50 in test [1] was < 0.001 µM; in test [2], > 0.1 µM; in test [3] it was > 0.1 µM.

As to `CNc1cc(Nc2cccn(-c3ccc(C(=O)N4CCC5(CC4)CC(Cc4ccc6c(c4)n(C)c(=O)n6C4CCC(=O)NC4=O)C5)cn3)c2=O)nn2c(C(=O)N[C@@H]3C[C@@H]3F)cnc12` (stereo partly drawn) [Example K391], the DC50 in test [1] is < 0.001 µM; in test [2] it was < 0.001 µM; in test [3], > 0.1 µM.

With `CNc1cc(Nc2cccn(-c3ccc(C(=O)N4CCC5(CC4)CCN(c4ccc6c(c4)n(C)c(=O)n6C4CCC(=O)NC4=O)C5)cn3)c2=O)nn2c(C(=O)N[C@@H]3C[C@@H]3F)cnc12` (stereo partly drawn) [Example K392], the results for the DC50 in test [1], in test [2] and in test [3] were < 0.001 µM, > 0.1 µM and > 0.1 µM, respectively.

For the molecule `CNc1cc(Nc2cccn(-c3ccc(C(=O)N4CCC(OC5CC(c6ccc7c(c6)n(C)c(=O)n7C6CCC(=O)NC6=O)C5)CC4)cn3)c2=O)nn2c(C(=O)N[C@@H]3C[C@@H]3F)cnc12` (stereo partly drawn) [Example K393], the DC50 in test [1] was < 0.001 µM; in test [2], > 0.1 µM; in test [3], > 0.1 µM.

Turning to `CNc1cc(Nc2cccn(-c3ccc(C(=O)N4CCC(OCC#Cc5ccc6c(c5)n(C)c(=O)n6C5CCC(=O)NC5=O)CC4)cn3)c2=O)nn2c(C(=O)N[C@@H]3C[C@@H]3F)cnc12` (stereo partly drawn) [Example K394], the DC50 in test [1] was > 0.1 µM; in test [2], 0.001 to 0.01 µM; in test [3] it was > 0.1 µM.

In the case of `CNc1cc(Nc2cccn(-c3ccc(C(=O)N4CCC(n5cc(-c6ccc7c(c6)n(C)c(=O)n7C6CCC(=O)NC6=O)cn5)CC4)cn3)c2=O)nn2c(C(=O)N[C@@H]3C[C@@H]3F)cnc12` (stereo partly drawn) [Example K395], the half-maximal degradation concentration (DC50) in test [1] is > 0.1 µM; in test [2], < 0.001 µM; in test [3], > 0.1 µM.

Turning to `CNc1cc(Nc2cccn(C3CCN(C(=O)N(C)C4CCN(Cc5cccc6c5n(C)c(=O)n6C5CCC(=O)NC5=O)CC4)CC3)c2=O)nn2c(C(=O)N[C@@H]3C[C@@H]3F)cnc12` (stereo partly drawn) [Example K396], the figures for the DC50 in test [1], in test [2] and in test [3] were > 0.1 µM, 0.001 to 0.01 µM and > 0.1 µM, respectively.

Regarding `CNc1cc(Nc2cccn(C3CCN(C(=O)N(C)CC4CCN(Cc5cccc6c5n(C)c(=O)n6C5CCC(=O)NC5=O)CC4)CC3)c2=O)nn2c(C(=O)N[C@@H]3C[C@@H]3F)cnc12` (stereo partly drawn) [Example K397], the DC50 is > 0.1 µM in test [1], 0.001 to 0.01 µM in test [2] and > 0.1 µM in test [3].

Regarding `CNc1cc(Nc2cccn(C3CCN(C(=O)N(C)CC4CCN(c5ccc6c(c5)n(C)c(=O)n6C5CCC(=O)NC5=O)CC4)CC3)c2=O)nn2c(C(=O)N[C@@H]3C[C@@H]3F)cnc12` (stereo partly drawn) [Example K398], the DC50 in test [1] is > 0.1 µM; in test [2] it was < 0.001 µM; in test [3], > 0.1 µM.

Take `CNc1cc(Nc2cccn(C3CCN(C(=O)NCCCCCCCCCCc4ccc5c(c4)n(C)c(=O)n5C4CCC(=O)NC4=O)CC3)c2=O)nn2c(C(=O)N[C@@H]3C[C@@H]3F)cnc12` (stereo partly drawn) [Example K399]: the DC50 in test [1] is > 0.1 µM; in test [2], 0.001 to 0.01 µM; in test [3], > 0.1 µM.

Take `Cc1cc(C)cc(Nc2cc(NCCCCCCCCc3ccc4c(c3)n(C)c(=O)n4C3CCC(=O)NC3=O)c3ncc(C(=O)N[C@@H]4C[C@@H]4F)n3n2)c1` (stereo partly drawn) [Example K400]: the DC50 in test [1], in test [2] and in test [3] was > 0.1 µM in each case.
